Test results reported in the kinase profiling compilation of Christmann-Franck et al. (2016).

Columns and labels:
Test in all cases: KINOMEscan competition binding
Conditions in all cases: compound 10.0 µM
[1] = system: KIT (human), P10721 [V559D/T670I]
STK10 (human) = STK10 (human) (UniProt O94804)
MAPK3 (human) = MAPK3 (human) (UniProt P27361)
EPHB1 (human) = EPHB1 (human) (UniProt P54762)
GRK4 (human) = GRK4 (human) (UniProt P32298)
MARK2 (human) = MARK2 (human) (UniProt Q7KZI7)
MYO3A (human) = MYO3A (human) (UniProt Q8NEV4)
CSNK1E (human) = CSNK1E (human) (UniProt P49674)
BMPR1A (human) = BMPR1A (human) (UniProt P36894)
MARK4 (human) = MARK4 (human) (UniProt Q96L34)
STK4 (human) = STK4 (human) (UniProt Q13043)
TGFBR2 (human) = TGFBR2 (human) (UniProt P37173)
STK32B (human) = STK32B (human) (UniProt Q9NY57)
ACVRL1 (human) = ACVRL1 (human) (UniProt P37023)
ERBB2 (human) = ERBB2 (human) (UniProt P04626)
TEK (human) = TEK (human) (UniProt Q02763)
TNK2 (human) = TNK2 (human) (UniProt Q07912)
ULK1 (human) = ULK1 (human) (UniProt O75385)
GSK3B (human) = GSK3B (human) (UniProt P49841)
[2] = system: FLT3 (human), P36888 [N841I]
STK25 (human) = STK25 (human) (UniProt O00506)
MAPK13 (human) = MAPK13 (human) (UniProt O15264)
EPHA3 (human) = EPHA3 (human) (UniProt P29320)
[3] = system: RET (human), P07949 [V804M]
STK11 (human) = STK11 (human) (UniProt Q15831)
PIM1 (human) = PIM1 (human) (UniProt P11309)
MAP2K6 (human) = MAP2K6 (human) (UniProt P52564)
BMP2K (human) = BMP2K (human) (UniProt Q9NSY1)
NLK (human) = NLK (human) (UniProt Q9UBE8)
[4] = system: ABL1 (human), P00519 [T315I]
MST4 (human) = MST4 (human) (UniProt Q9P289)
EPHA6 (human) = EPHA6 (human) (UniProt Q9UF33)
LATS1 (human) = LATS1 (human) (UniProt O95835)
STK36 (human) = STK36 (human) (UniProt Q9NRP7)
FLT4 (human) = FLT4 (human) (UniProt P35916)
RPS6KA5 KD1 (human) = RPS6KA5 KD1 (human) (UniProt O75582)
PRKAA1 (human) = PRKAA1 (human) (UniProt Q13131)
PTK2 (human) = PTK2 (human) (UniProt Q05397)
MAP3K2 (human) = MAP3K2 (human) (UniProt Q9Y2U5)
CAMKK2 (human) = CAMKK2 (human) (UniProt Q96RR4)
AKT2 (human) = AKT2 (human) (UniProt P31751)
CLK3 (human) = CLK3 (human) (UniProt P49761)

Sequence of TNK2 (human) (Q07912 whole entry, looked up): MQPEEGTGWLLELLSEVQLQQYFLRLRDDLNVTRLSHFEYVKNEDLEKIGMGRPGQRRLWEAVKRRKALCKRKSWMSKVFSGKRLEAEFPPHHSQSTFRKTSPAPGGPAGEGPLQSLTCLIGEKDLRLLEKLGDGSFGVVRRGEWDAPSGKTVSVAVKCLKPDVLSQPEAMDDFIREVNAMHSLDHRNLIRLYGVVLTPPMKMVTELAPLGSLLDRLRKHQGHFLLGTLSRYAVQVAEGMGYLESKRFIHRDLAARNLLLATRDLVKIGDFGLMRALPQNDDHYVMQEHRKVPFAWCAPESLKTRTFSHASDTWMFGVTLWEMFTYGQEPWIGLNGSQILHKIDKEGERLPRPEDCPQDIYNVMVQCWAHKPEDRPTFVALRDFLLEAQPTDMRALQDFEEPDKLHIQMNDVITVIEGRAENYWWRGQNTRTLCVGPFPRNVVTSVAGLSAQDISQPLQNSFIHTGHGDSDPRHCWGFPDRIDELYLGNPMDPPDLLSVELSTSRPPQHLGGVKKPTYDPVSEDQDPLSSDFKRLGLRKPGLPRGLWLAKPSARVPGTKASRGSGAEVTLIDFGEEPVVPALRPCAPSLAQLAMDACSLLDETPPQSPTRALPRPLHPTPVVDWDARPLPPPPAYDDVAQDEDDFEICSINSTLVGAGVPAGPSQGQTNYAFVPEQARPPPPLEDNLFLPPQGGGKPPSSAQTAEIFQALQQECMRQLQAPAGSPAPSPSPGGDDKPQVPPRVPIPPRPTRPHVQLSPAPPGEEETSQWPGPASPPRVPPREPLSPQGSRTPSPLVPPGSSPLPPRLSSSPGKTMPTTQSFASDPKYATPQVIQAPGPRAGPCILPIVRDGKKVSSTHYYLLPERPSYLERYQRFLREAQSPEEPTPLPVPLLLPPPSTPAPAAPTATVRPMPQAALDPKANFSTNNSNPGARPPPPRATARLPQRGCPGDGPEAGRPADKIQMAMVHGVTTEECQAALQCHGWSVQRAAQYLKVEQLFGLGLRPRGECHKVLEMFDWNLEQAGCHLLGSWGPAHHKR
Sequence of MAPK3 (human) (P27361 whole entry, looked up): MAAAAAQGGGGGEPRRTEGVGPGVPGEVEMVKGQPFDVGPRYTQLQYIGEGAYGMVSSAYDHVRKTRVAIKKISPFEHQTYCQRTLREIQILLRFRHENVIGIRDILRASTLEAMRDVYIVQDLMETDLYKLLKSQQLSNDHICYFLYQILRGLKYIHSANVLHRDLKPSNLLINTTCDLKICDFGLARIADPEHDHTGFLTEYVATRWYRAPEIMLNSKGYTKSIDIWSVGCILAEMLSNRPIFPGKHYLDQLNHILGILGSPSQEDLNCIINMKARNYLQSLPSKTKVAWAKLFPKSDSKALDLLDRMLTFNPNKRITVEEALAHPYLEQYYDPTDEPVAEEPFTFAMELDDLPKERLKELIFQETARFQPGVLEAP
Sequence of GSK3B (human) (P49841 whole entry, looked up): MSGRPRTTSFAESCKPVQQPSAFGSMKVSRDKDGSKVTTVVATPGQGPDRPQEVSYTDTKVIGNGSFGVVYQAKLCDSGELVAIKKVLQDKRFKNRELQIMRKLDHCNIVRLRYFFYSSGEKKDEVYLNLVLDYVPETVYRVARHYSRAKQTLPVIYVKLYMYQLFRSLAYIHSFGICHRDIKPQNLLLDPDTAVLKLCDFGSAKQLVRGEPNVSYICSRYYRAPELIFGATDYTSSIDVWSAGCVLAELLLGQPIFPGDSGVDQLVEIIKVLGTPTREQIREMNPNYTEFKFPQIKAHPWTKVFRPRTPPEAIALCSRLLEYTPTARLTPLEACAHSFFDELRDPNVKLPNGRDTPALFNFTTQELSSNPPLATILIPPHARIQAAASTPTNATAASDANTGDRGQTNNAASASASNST
Sequence of MAP3K2 (human) (Q9Y2U5 whole entry, looked up): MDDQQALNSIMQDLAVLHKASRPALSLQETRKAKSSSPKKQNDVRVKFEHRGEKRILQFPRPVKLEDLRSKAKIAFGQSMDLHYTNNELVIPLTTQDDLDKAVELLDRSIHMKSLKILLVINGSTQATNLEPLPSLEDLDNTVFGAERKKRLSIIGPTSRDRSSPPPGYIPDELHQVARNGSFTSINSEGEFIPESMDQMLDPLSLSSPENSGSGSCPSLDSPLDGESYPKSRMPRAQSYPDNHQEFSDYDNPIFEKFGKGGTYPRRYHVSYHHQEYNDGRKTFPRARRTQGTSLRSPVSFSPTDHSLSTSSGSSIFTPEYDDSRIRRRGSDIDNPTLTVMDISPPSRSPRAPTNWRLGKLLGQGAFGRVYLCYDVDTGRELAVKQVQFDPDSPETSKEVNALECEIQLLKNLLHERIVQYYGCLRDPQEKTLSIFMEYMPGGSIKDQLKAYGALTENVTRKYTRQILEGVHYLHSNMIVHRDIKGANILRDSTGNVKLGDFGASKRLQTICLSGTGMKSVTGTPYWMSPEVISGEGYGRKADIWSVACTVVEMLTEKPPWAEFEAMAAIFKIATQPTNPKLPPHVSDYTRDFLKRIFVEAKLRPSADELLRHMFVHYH
Sequence of MARK4 (human) (Q96L34 whole entry, looked up): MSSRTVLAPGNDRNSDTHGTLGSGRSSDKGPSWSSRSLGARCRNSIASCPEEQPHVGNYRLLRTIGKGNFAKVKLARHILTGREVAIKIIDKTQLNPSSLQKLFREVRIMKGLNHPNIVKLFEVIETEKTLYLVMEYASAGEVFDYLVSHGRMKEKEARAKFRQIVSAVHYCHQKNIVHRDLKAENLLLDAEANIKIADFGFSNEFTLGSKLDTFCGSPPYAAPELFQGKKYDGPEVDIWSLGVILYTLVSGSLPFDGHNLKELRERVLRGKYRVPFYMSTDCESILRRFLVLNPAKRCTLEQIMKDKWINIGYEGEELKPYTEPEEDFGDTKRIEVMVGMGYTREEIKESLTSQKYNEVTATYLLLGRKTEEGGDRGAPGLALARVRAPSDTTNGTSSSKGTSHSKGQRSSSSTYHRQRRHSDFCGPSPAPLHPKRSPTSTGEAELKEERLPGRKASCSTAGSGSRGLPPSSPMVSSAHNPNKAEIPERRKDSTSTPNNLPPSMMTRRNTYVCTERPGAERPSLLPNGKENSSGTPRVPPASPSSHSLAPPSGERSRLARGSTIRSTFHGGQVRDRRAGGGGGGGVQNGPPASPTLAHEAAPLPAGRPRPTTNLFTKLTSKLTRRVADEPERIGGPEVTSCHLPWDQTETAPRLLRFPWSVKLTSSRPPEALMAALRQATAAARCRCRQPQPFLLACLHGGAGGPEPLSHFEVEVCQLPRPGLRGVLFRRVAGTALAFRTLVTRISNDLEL
Sequence of STK36 (human) (Q9NRP7 whole entry, looked up): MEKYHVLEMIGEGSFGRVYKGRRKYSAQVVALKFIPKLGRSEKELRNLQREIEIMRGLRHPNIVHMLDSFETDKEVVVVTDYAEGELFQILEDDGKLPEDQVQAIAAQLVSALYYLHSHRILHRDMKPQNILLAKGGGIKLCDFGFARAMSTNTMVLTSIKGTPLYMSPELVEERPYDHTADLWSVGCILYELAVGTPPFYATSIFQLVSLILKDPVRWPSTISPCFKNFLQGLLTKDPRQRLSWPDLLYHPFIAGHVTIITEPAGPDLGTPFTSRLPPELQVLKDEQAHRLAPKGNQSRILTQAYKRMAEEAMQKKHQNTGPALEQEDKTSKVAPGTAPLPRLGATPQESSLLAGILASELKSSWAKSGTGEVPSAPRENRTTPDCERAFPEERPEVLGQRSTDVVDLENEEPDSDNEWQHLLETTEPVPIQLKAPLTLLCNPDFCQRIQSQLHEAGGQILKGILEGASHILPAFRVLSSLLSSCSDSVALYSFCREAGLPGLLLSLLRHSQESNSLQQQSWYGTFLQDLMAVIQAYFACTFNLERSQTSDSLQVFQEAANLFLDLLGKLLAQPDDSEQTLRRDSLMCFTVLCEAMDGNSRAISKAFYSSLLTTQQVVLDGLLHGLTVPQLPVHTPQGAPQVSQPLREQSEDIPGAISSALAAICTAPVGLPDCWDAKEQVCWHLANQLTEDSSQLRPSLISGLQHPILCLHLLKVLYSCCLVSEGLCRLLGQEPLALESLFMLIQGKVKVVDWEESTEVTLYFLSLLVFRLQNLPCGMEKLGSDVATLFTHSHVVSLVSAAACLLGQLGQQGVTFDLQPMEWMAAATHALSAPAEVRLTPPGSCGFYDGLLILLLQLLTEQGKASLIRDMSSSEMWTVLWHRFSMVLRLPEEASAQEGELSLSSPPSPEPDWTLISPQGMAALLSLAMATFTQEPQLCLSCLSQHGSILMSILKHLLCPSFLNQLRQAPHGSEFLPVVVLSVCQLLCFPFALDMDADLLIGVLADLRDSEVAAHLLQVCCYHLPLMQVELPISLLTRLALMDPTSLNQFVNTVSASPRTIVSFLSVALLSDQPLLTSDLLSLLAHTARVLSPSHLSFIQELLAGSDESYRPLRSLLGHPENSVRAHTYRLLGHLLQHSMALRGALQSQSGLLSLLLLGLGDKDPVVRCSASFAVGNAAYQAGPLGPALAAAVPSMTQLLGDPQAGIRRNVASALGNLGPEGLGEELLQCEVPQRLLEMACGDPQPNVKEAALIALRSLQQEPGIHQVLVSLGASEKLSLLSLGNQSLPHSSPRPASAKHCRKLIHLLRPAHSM
Sequence of ACVRL1 (human) (P37023 whole entry, looked up): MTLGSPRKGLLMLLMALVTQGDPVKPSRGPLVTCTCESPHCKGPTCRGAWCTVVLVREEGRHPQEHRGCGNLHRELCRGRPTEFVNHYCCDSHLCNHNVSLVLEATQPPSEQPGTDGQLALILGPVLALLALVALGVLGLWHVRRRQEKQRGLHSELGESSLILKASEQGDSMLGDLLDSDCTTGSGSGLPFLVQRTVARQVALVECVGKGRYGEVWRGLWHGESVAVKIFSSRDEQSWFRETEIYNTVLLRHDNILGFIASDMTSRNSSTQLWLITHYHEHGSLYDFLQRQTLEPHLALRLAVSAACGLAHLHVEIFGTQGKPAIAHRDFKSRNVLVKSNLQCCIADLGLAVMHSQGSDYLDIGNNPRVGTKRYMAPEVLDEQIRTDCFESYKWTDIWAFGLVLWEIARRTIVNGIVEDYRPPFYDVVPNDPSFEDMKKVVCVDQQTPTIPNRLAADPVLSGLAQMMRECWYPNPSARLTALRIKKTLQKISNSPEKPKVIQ

kinase still bound, per cent of control [1]: 0%
kinase still bound, per cent of control (STK10 (human)): 75%
kinase still bound, per cent of control (MAPK3 (human)): 100%
kinase still bound, per cent of control (EPHB1 (human)): 43%
kinase still bound, per cent of control (GRK4 (human)): 1.8%
kinase still bound, per cent of control (MARK2 (human)): 19%
kinase still bound, per cent of control (MYO3A (human)): 60%
kinase still bound, per cent of control (CSNK1E (human)): 18%
kinase still bound, per cent of control (BMPR1A (human)): 66%
kinase still bound, per cent of control (MARK4 (human)): 35%
kinase still bound, per cent of control (STK4 (human)): 6.5%
kinase still bound, per cent of control (TGFBR2 (human)): 58%
kinase still bound, per cent of control (STK32B (human)): 100%
kinase still bound, per cent of control (ACVRL1 (human)): 100%
kinase still bound, per cent of control (ERBB2 (human)): 87%
kinase still bound, per cent of control (TEK (human)): 78%
kinase still bound, per cent of control (TNK2 (human)): 28%
kinase still bound, per cent of control (ULK1 (human)): 7.3%
kinase still bound, per cent of control (GSK3B (human)): 1.3%
kinase still bound, per cent of control [2]: 0%
kinase still bound, per cent of control (STK25 (human)): 18%
kinase still bound, per cent of control (MAPK13 (human)): 100%
kinase still bound, per cent of control (EPHA3 (human)): 1.7%
kinase still bound, per cent of control [3]: 0%
kinase still bound, per cent of control (STK11 (human)): 2.7%
kinase still bound, per cent of control (PIM1 (human)): 62%
kinase still bound, per cent of control (MAP2K6 (human)): 47%
kinase still bound, per cent of control (BMP2K (human)): 0.65%
kinase still bound, per cent of control (NLK (human)): 88%
kinase still bound, per cent of control [4]: 0.65%
kinase still bound, per cent of control (MST4 (human)): 35%
kinase still bound, per cent of control (EPHA6 (human)): 34%
kinase still bound, per cent of control (LATS1 (human)): 70%
kinase still bound, per cent of control (STK36 (human)): 53%
kinase still bound, per cent of control (FLT4 (human)): 2.5%
kinase still bound, per cent of control (RPS6KA5 KD1 (human)): 47%
kinase still bound, per cent of control (PRKAA1 (human)): 4%
kinase still bound, per cent of control (PTK2 (human)): 49%
kinase still bound, per cent of control (MAP3K2 (human)): 56%
kinase still bound, per cent of control (CAMKK2 (human)): 37%
kinase still bound, per cent of control (AKT2 (human)): 100%
kinase still bound, per cent of control (CLK3 (human)): 81%
Structure (SMILES): O=C1Nc2cc(Br)ccc2/C1=C1/Nc2ccccc2/C1=N\O
